Where two headings read alike, the source gives them in different places.
Assays:
Assay type in all cases: cell-based
[1] = Cytotoxicity (rDNA) in HepG2-NTCP infectious system; conditions: human, HepG2-NTCP (Clone 7) cells infected with HBV, day 11, read-out: HBV DNA/rDNA CC50
Protocol: (§1) Antiviral Activity in HepG2-NTCP Infectious System: HepG2-NTCP (Clone 7) cells were pretreated with antivirals for 30 min prior infection for 24 h with stock concentrated virus produced from HepAD38 at a dose of ˜300 virus genome equivalent (VGE) per cell in the presence of media containing 4% polyethylene glycol 8000 (PEG) and 2% DMSO. After 24 h, virus inoculum with or without antiviral agents were washed out from cells and media in the presence of 4% PEG and 2% DMSO, with or without antiviral agents were replenished every two days until day 11. Cells and supernatants were harvested and tested for intracellular HBV DNA, pregenomic (pg) RNA, surface RNA, and secreted HBeAg (ELISA).

[2] = tested on: HBV replication in HepAD38 cells; assay: Drug-drug combination, inhibition of HBV replication in HepAD38 cells; conditions: Hepatitis B virus, HePAD38
HBV = assay: Antiviral activity in HepG2-NTCP infectious system; conditions: Hepatitis B virus, 264 h
Protocol: as §1

Glutathione levels (GSH) = assay: Glutathione levels in Huh7 cells (GSH-Glo Glutathione Assay)
Protocol: Glutathione levels (GSH) were measured in Huh7 cells after 22 h treatment with 10 μM CAMs (GSH-Glo™ Glutathione Assay—Promega). Treatment of Huh7 with 10 μM positive control, L-buthionine-sulfoximine, reduced cellular GSH levels by 58% (data not shown); Samples were tested in triplicates.

wild type HBV = assay: Anti-HBV assay in AD-38 cell line (HBV in culture supernatant); conditions: Hepatitis B virus; AD-38 cell line, Tet (-); read-out: Anti-HBV activity EC50
[3] = Cellular toxicity assay in HepG2 cells; conditions: human, HepG2 cells; read-out: Cytotoxicity; CC50 (μM) HepG2
In short: (§2)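 IC50 for cytotoxicity is derived with the median effective method from concentration-response data. Controls: cycloheximide, solvent-treated untreated cells.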

[4] = Cellular toxicity assay in human PBM cells; conditions: human, human PBM cells; read-out: Cytotoxicity; CC50 (μM) PBM
In short: as §2

[5] = read-out: HBV DNA/rDNA EC50 (nM)
[6] = read-out: HBV RNA EC50, nM pgRNA
[7] = read-out: HBV RNA EC50, nM sRNA

C=C1[C@H](CO)[C@@H](O)C[C@@H]1n1cnc2c(=O)[nH]c(N)nc21 [ETV, Entecavir, reference compound]
CC50 at 11 days [1]: > 1000 nM | EC50 [2]: 0.04 nM | EC90 [2]: 12.9 nM | EC50 (HBV; [5]): < 1 nM | EC50 (HBV; [6]): > 1000 nM | EC50 (HBV; [7]): > 1000 nM | EC50 (HBV; read-out: HBeAg EC50, nM): > 1000 nM

C#CCNC(=O)C(=O)c1c(C)c(C(=O)Nc2ccc(F)c(F)c2)n(CC#C)c1C [Compound 114, N-(3,4-Difluorophenyl)-3,5-dimethyl-4-(2-oxo-2-(prop-2-yn-1-ylamino)acetyl)-1-(prop-2-yn-1-yl)-1H-pyrrole-2-carboxamide]
GSH levels relative to untreated control (Glutathione levels (GSH); 22 h treatment): > 10 µM | inhibition at 10 µM (Glutathione levels (GSH); Homo sapiens, Huh-7, read-out: GSH levels relative to untreated control (% inhibition at 10 μM), 22 h, 10 μM): 27% | CC50 at 11 days [1]: > 1000 nM | EC50 (wild type HBV): 0.1 to 1 nM | CC50 [3]: > 100 µM | EC50 (HBV; [5]): 0.6 nM | EC50 (HBV; [6]): 79.6 nM | EC50 (HBV; [7]): 67.8 nM | EC50 (HBV; read-out: HBeAg EC50, nM): 488 nM | CC50 [4]: > 100 µM

Source: patent publication US20230056135A1, “MONOMER AND MULTIMERIC ANTI-HBV AGENTS” (priority 2018, published 2023)
